The assay has as its target T1, human Nox4 (Homo sapiens, UniProt Q9NPH5).
T1 construct: expressed in transfected cells; host or cells: T-REx-293 (hNOX4 T-REx-293), tetracycline-induced; membrane fraction
T1 sequence (Q9NPH5 1-578): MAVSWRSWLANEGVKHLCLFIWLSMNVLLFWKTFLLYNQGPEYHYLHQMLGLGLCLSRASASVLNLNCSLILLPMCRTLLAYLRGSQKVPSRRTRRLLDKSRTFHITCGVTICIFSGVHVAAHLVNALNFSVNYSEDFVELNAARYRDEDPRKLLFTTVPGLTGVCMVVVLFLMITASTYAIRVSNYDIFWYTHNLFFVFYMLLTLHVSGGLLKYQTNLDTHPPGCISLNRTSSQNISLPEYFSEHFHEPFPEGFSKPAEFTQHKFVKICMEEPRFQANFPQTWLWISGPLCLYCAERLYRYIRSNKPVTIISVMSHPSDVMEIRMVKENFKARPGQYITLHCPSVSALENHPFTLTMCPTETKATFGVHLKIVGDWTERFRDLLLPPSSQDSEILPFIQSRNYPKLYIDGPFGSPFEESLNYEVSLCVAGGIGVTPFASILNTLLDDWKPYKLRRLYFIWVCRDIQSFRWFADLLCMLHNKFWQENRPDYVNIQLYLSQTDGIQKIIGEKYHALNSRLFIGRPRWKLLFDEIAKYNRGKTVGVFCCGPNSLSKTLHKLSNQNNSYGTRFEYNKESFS
T1 sequence (P13498 2-195 partner limits assumed): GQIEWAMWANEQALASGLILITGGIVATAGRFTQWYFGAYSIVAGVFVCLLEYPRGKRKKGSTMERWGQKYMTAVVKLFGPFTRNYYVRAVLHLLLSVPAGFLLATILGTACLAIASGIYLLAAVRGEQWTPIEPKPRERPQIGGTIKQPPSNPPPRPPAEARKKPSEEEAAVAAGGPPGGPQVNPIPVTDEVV
Nature of the assay: ROS production by membranes expressing human Nox4, cell-free Amplex Red assay. It is filed as biochemical. The following applies: cell-free membranes, Amplex Red; Cheng-Prusoff; average of at least three experiments in triplicate; read-out: Ki hNox4. An outline of the steps: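 Membranes from tetracycline-induced (1 μg/ml, 24 h) T-REx cells overexpressing human Nox4, incubated in PBS with Amplex Red, HRP and co-factors; NADPH starts ROS production. Compounds 1 nM-100 μM, 20 min at 37° C.; fluorescence (ex 544/em 590 nm) over 10 min; Ki via Cheng-Prusoff, ≥3 experiments in triplicate.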

Regarding `COc1ccc(-c2c3c(=O)n(-c4ccccc4OC)[nH]c3cc(=O)n2Cc2cccnc2)c(F)c1` [Compound (1), 4-(2-fluoro-4-methoxyphenyl)-2-(2-methoxyphenyl)-5-(pyridin-3-ylmethyl)-1H-pyrazolo[4,3-c]pyridine-3,6(2H,5H)-dione], the Ki was 75 nM.

Usually Ki stands for a measure of affinity in units of concentration, obtained from inhibition or displacement.

These data come from patent publication US20140323500A1, “NADPH OXIDASE 4 INHIBITORS AND USE THEREOF” (GENKYOTEX SA, priority 2011, published 2014).
